Assay results reported in patent US12454529B2, “Piperazine cyclic ureas” (SIRONAX LTD., priority 2020, dated 2025).
Like-named read-outs stand apart in the source and are kept apart here.

Test system: HT-29 cells
Assay: HT-29 cell necrosis/necroptosis inhibition (TNF-α + SMAC mimetic + zVAD-FMK; CellTiter-Glo cell viability)
Assay type: cell-based
Conditions: Homo sapiens, read-out: EC50 (Cell activity; Necrosis/Necroptosis Inhibitory Activity, Compounds 1-142)
Method in brief: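 HT-29 cells (~5,000/well) were switched to FBS-free McCOY's 5A holding TNF-α (10 ng/ml), SMAC mimetic (6 μM) and zVAD-FMK (10 μM), then dosed with a 10-point 1:3 series for 20 h at 37 °C. CellTiter-Glo luminescence gave viability; geometric mean EC50 from duplicates.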

[1] = HT-29 cells, TNF-α 10 ng/ml + SMAC mimetic 6 μM + zVAD-FMK 10 μM, 20 hours, geometric mean, 10 points in duplicate

Row | Compound | EC50 [1] [nM] | EC50 (HT-29, 20 h) [nM]
1 | Cc1nn(CCO)c(C)c1-c1nc(N2CCN(C(=O)N3N=CC[C@H]3c3cc(F)cc(F)c3)CC2)ncc1F [Compound 118, (S)-(5-(3,5-difluorophenyl)-4,5-dihydro-1H-pyrazol-1-yl)(4-(5-fluoro-4-(1-(2-hydroxyethyl)-3,5-dimethyl-1H-pyrazol-4-yl)pyrimidin-2-yl)piperazin-1-yl)methanone] | 0.1 to 100 | –
2 | Cc1nn(CC(N)=O)c(C)c1-c1nc(N2CCN(C(=O)N3N=CC[C@H]3c3cc(F)cc(F)c3)CC2)ncc1F [Compound 119, (S)-2-(4-(2-(4-(5-(3,5-difluorophenyl)-4,5-dihydro-1H-pyrazole-1-carbonyl)piperazin-1-yl)-5-fluoropyrimidin-4-yl)-3,5-dimethyl-1H-pyrazol-1-yl)acetamide] | 0.1 to 100 | –
3 | COCCn1nc(C)c(-c2nc(N3CCN(C(=O)N4N=CC[C@H]4c4cc(F)cc(F)c4)CC3)ncc2F)c1C [Compound 120, (S)-(5-(3,5-difluorophenyl)-4,5-dihydro-1H-pyrazol-1-yl)(4-(5-fluoro-4-(1-(2-methoxyethyl)-3,5-dimethyl-1H-pyrazol-4-yl)pyrimidin-2-yl)piperazin-1-yl)methanone] | 0.1 to 100 | –
4 | Cc1nn(CC2CC2)c(C)c1-c1nc(N2CCN(C(=O)N3N=CC[C@H]3c3cc(F)cc(F)c3)CC2)ncc1F [Compound 121, (S)-(4-(4-(1-(cyclopropylmethyl)-3,5-dimethyl-1H-pyrazol-4-yl)fluoropyrimidin-2-yl)piperazin-1-yl)(5-(3,5-difluorophenyl)-4,5-dihydro-1H-pyrazol-1-yl)methanone] | 0.1 to 100 | –
5 | Cc1nn(CC2CCOCC2)c(C)c1-c1nc(N2CCN(C(=O)N3N=CC[C@H]3c3cc(F)cc(F)c3)CC2)ncc1F [Compound 122, (S)-(5-(3,5-difluorophenyl)-4,5-dihydro-1H-pyrazol-1-yl)(4-(4-(3,5-dimethyl-1-((tetrahydro-2H-pyran-4-yl)methyl)-1H-pyrazol-4-yl)-5-fluoropyrimidin-2-yl)piperazin-1-yl)methanone] | 0.1 to 100 | –
6 | Cc1nn(CC(N)=O)c(C)c1-c1nc(N2CCN(C(=O)N3N=CC[C@H]3c3cc(F)cc(C#N)c3)CC2)ncc1F [Compound 123, (S)-2-(4-(2-(4-(5-(3-cyano-5-fluorophenyl)-4,5-dihydro-1H-pyrazole-1-carbonyl)piperazin-1-yl)-5-fluoropyrimidin-4-yl)-3,5-dimethyl-1H-pyrazol-1-yl)acetamide] | 0.1 to 100 | –
7 | Cc1nn(CCO)c(C)c1-c1nc(N2CCN(C(=O)N3N=CC[C@H]3c3cc(F)cc(C#N)c3)CC2)ncc1F [Compound 124, (S)-3-fluoro-5-(1-(4-(5-fluoro-4-(1-(2-hydroxyethyl)-3,5-dimethyl-1H-pyrazol-4-yl)pyrimidin-2-yl)piperazine-1-carbonyl)-4,5-dihydro-1H-pyrazol-5-yl)benzonitrile] | 0.1 to 100 | –
8 | N#Cc1cc(F)cc([C@@H]2CC=NN2C(=O)N2CCN(c3ncc(F)c(-n4cnc(C#N)n4)n3)CC2)c1 [Compound 125, (S)-1-(2-(4-(5-(3-cyano-5-fluorophenyl)-4,5-dihydro-1H-pyrazole-1-carbonyl)piperazin-1-yl)-5-fluoropyrimidin-4-yl)-1H-1,2,4-triazole-3-carbonitrile] | 0.1 to 100 | –
9 | N#Cc1cc(F)cc([C@@H]2CC=NN2C(=O)N2CCN(c3ncc(F)c(-n4cnc(Cl)n4)n3)CC2)c1 [Compound 126, (S)-3-(1-(4-(4-(3-chloro-1H-1,2,4-triazol-1-yl)-5-fluoropyrimidinyl)piperazine-1-carbonyl)-4,5-dihydro-1H-pyrazol-5-yl)-5-fluorobenzonitrile] | 0.1 to 100 | –
10 | N#Cc1cc(F)cc([C@@H]2CC=NN2C(=O)N2CCN(c3ncc(F)c(-n4cc(C#N)cn4)n3)CC2)c1 [Compound 127, (S)-1-(2-(4-(5-(3-cyano-5-fluorophenyl)-4,5-dihydro-1H-pyrazole-1-carbonyl)piperazin-1-yl)-5-fluoropyrimidin-4-yl)-1H-pyrazole-4-carbonitrile] | 0.1 to 100 | –
11 | N#Cc1cc(F)cc([C@@H]2CC=NN2C(=O)N2CCN(c3ncc(F)c(-n4ccc(C#N)n4)n3)CC2)c1 [Compound 128, (S)-1-(2-(4-(5-(3-cyano-5-fluorophenyl)-4,5-dihydro-1H-pyrazole-1-carbonyl)piperazin-1-yl)-5-fluoropyrimidin-4-yl)-1H-pyrazole-3-carbonitrile] | 0.1 to 100 | –
12 | CCOC(=O)c1nc(C)n(-c2nc(N3CCN(C(=O)N4N=CC[C@H]4c4cc(F)cc(C#N)c4)CC3)ncc2F)n1 [Compound 129, ethyl (S)-1-(2-(4-(5-(3-cyano-5-fluorophenyl)-4,5-dihydro-1H-pyrazole-1-carbonyl)piperazin-1-yl)-5-fluoropyrimidin-4-yl)-5-methyl-1H-1,2,4-triazole-3-carboxylate] | 0.1 to 100 | –
13 | Cc1nc(C)n(-c2ncnc(N3CCN(C(=O)N4N=CC[C@H]4c4cc(F)cc(C#N)c4)CC3)n2)n1 [Compound 130, (S)-3-(1-(4-(4-(3,5-dimethyl-1H-1,2,4-triazol-1-yl)-1,3,5-triazin-2-yl)piperazine-1-carbonyl)-4,5-dihydro-1H-pyrazol-5-yl)-5-fluorobenzonitrile] | 0.1 to 100 | –
14 | Cc1nn(-c2nc(N3CCN(C(=O)N4N=CC[C@H]4c4cc(F)cc(C#N)c4)CC3)ncc2F)c(C)c1N [Compound 131, (S)-3-(1-(4-(4-(4-amino-3,5-dimethyl-1H-pyrazol-1-yl)-5-fluoropyrimidin-2-yl)piperazine-1-carbonyl)-4,5-dihydro-1H-pyrazol-5-yl)-5-fluorobenzonitrile] | 0.1 to 100 | –
15 | Cc1nn(CC2CCOC2)c(C)c1-c1nc(N2CCN(C(=O)N3N=CC[C@H]3c3cc(F)cc(C#N)c3)CC2)ncc1F (stereo partly drawn) [Compound 132, 3-((5S)-1-(4-(4-(3,5-dimethyl-1-((tetrahydrofuran-3-yl)methyl)-1H-pyrazol-4-yl)-5-fluoropyrimidin-2-yl)piperazine-1-carbonyl)-4,5-dihydro-1H-pyrazol-5-yl)-5-fluorobenzonitrile] | 0.1 to 100 | –
16 | Cc1nn(C[C@@H]2CO2)c(C)c1-c1nc(N2CCN(C(=O)N3N=CC[C@H]3c3cc(F)cc(C#N)c3)CC2)ncc1F [Compound 133, 3-((S)-1-(4-(4-(3,5-dimethyl-1-(((R)-oxiran-2-yl)methyl)-1H-pyrazol-4-yl)-5-fluoropyrimidin-2-yl)piperazine-1-carbonyl)-4,5-dihydro-1H-pyrazol-5-yl) fluorobenzonitrile] | – | 0.1 to 100
17 | Cc1nn(C[C@H]2CO2)c(C)c1-c1nc(N2CCN(C(=O)N3N=CC[C@H]3c3cc(F)cc(C#N)c3)CC2)ncc1F [Compound 134, 3-((S)-1-(4-(4-(3,5-dimethyl-1-(((S)-oxiran-2-yl)methyl)-1H-pyrazol-4-yl)-5-fluoropyrimidin-2-yl)piperazine-1-carbonyl)-4,5-dihydro-1H-pyrazol-5-yl)-5-fluorobenzonitrile] | – | 0.1 to 100
18 | Cc1nn(CC2COC2)c(C)c1-c1nc(N2CCN(C(=O)N3N=CC[C@H]3c3cc(F)cc(C#N)c3)CC2)ncc1F [Compound 135, (S)-3-(1-(4-(4-(3,5-dimethyl-1-(oxetan-3-ylmethyl)-1H-pyrazol-4-yl)-5-fluoropyrimidin-2-yl)piperazine-1-carbonyl)-4,5-dihydro-1H-pyrazol-5-yl) fluorobenzonitrile] | 0.1 to 100 | –
